One series deals with HT29. Put plainly: MTT cell viability, HT29. It is filed as cell-based, human. The settings on record: Homo sapiens, HT-29, 48 hours, Mean ± SD, read-out: Growth Inhibition IC50 HT-29. As to the method: Cell lines used in the present disclosure include human liver carcinonoma cell line HepG2, human bladder carcinoma cell line BFTC905, human colon carcinoma cell lines HT29 and SW480, and human leukemia cell lines HL60 and Jurkat T, and mouse lymphocytic leukemia cell line L1210. Each cell lines were cultured and maintained in Dulbecco's modified Eagle media (DMEM) or RPMI 1640 medium supplemented with 10% heat inactivated fetal bovine serum (FBS), 1% penicillin/streptomycin, in 5% CO2195% air at 37° C.
The absorbance of the solution at 540 nm was measured by spectrophotometer. The IC50 values were defined as the drug concentration that inhibit 50% cell growth by setting the viability of untreated cells as 100%. Values were represented as the mean±SD from at least 3 independent experiments.
Effects of the compounds of formula (I) of this disclosure, specifically, NOC15 and NC 15, on HepG2 cells (liver carcinoma), BFTC905 (bladder carcinoma), HT29 (colon carcinoma), SW480 (colon carcinoma) and HL60 (leukemia) were assessed by cell viability analysis in accordance with procedures described above, in which compound 2, and other known anti-cancer agents including 5-FU, cisplatin and doxorubicin were respectively used as positive controls.

A further series relates to L1210 cells. Description: Syngeneic L1210 tumor in vivo therapy. Further details: species or system DBA/2 mice. As to the method: The DBA/2 mice (about 7 weeks old, 18-22 g) were obtained from BioLASCO Taiwan Co., Ltd. All mice were housed in specific pathogen-free condition with ad libitum access to water and laboratory chow. A solution of L1210 cells was injected into the subcutaneous tissue to establish a syngeneic tumor. Alternatively, the L1210 cells was injected peritoneally. All animal experiments were performed in accordance with the guidelines of the Animal Welfare Committee of Taipei Veterans General Hospital (Taiwan, R.O.C.).
(§1) To inoculate tumor, L1210 cells (1×10^6 cells per injection) were injected either subcutaneously or intraperitoneally to lab animals to generate tumors on day 1. After 7 days, NOC15 or NC15 (diluted in normal saline) was administered intra-peritoneally at a dose of 18 mg/kg every day for 7 days. The average body weight (BW) of the animals was measured daily.
After treatment, mice were sacrificed, and their tumors, livers and spleens were harvested and weighted, respectively; and white blood cells (WBC) counts were also measured.
(§2) Mice were inoculated with L1210 tumor cells in accordance with the procedures described in the section of “Materials and Methods.” For in vivo therapy, animals were given 18 mg/Kg NOC15 or NC15 by intra-peritoneal route, for a period of at least 7 days. Tumor size, animal body weight, respective weights of liver and spleen, as well as the white blood cell count of each animal were then measured respectively at the indicated time. Results are depicted in FIGS. 8 to 11, respectively.

The nature of series [1]: Body weight of treated animals. It is filed as in vivo, mice. The settings on record: 18 mg/Kg, compared with healthy normal control, FIG. 11. The protocol:
as §1, §2

`CC(C)=CCCC(C)=CCCC(C)=CCN1C(=O)C2C3CCC(O3)C2C1=O` (stereo not shown) [Compound 18, N-farnesyl-7-oxabicyclo[2.2.1]heptane-2,3-dicarboximide]: the IC50 (in general, the point on the concentration scale where inhibition reaches its midpoint) in the series with HT29 was determined as 14.8 ± 1.9 µM. Besides, the weight of liver result with L1210 cells (IP-inoculated tumor, 18 mg/kg i.p., FIG. 9B) is “improved significantly”. The weight of spleen result with L1210 cells (IP-inoculated tumor, 18 mg/kg i.p., FIG. 9C) is on record as “improved significantly”. Moreover, the “increase in life span” value in the series on L1210 cells (SC-inoculated tumors, 18 mg/kg i.p. daily, FIG. 8A) is given as “about 40%”. The “weight of s.c. tumor” value in the series with L1210 cells (SC-inoculated, 18 mg/kg i.p., FIG. 9A) is “Significant reduction”. Besides, the “white blood cell (WBC) counts” value with L1210 cells (day 14, SC- or IP-injected L1210, 18 mg/kg i.p., FIG. 10) is on record as “significant reductions”. Moreover, the “total body weight along the course of treatment” value in series [1] was “eventually brought the animal body weight to the level same as the control”.

The values are drawn from US9359373B1, “Lipophilic N-substituted norcantharimide derivatives and uses thereof” (priority 2014, dated 2016).
